“Also recorded” adds a separate entry of the source. Like-named read-outs stand apart in the source and are kept apart here.
How the values were obtained:
T. cruzi CYP51 [1] = target: T1, T. cruzi CYP51 (Trypanosoma cruzi, UniProt Q7Z1V1); assay: HTS spectral-mode binding screen, type II difference spectra scored 0-5
T1 construct: had the first 21 residues upstream of K22 replaced with the fragment MAKKKKK; His6 (C); made in house

[2] = system: T. cruzi-infected skeletal myoblasts (intracellular amastigotes); assay: Hit cross-validation in T. cruzi-infected mammalian cells (image-based assay); type: cell-based, Trypanosoma cruzi
Description: Bovine embryo skeletal muscle cells or mouse C2C12 myoblasts (ATCC#CRL-1772) used in the cross-validation assay, were cultivated respectively in RPMI 1640 medium supplemented with 5% horse serum and Dulbecco's Modified Eagle's Medium H-21 containing 4.5 g/l glucose (DMEM H-21) (Cell Culture Facility, UCSF), supplemented with 5% fetal bovine serum (FBS) (Sigma Chemical Co., St. Louis, MO, USA), 25 mM HEPES, 2 mM L-glutamine, 100 U/ml penicillin, 100 µg/ml streptomycin. T. cruzi CAI-72 trypomastigotes were obtained from supernatant of infected cultures 4 to 7 days post-infection. Cultures were maintained at 37°C in an atmosphere of 5% CO2. To harvest parasites, the supernatant of infected cultures containing released trypomastigotes was collected and centrifuged at 600 rpm for 5 min to remove cell debris; the pellet was then discarded and the trypomastigotes remaining in the media were concentrated by spinning the culture tubes at 3300 rpm for 15 minutes. The parasite pellet was re-suspended in 2–5 ml of fresh media. Trypomastigote concentration was determined using a Neubauer hemocytometer.
(§1) Compound cross-validation in T. cruzi infected skeletal myoblasts (bovine embryo skeletal muscle or C2C12 lineage) was performed according to the protocol adapted from Engel and co-authors. Compounds stored as 10 mM stocks in DMSO were freshly diluted immediately prior to use. […] To prepare plates for the assay, skeletal myoblasts cultured in […] flasks were washed once with phosphate buffered saline (PBS) and then incubated with 0.25% trypsin in PBS for 1–3 minutes for detachment. The trypsin solution was removed and myoblasts were released from the flask bottom. Fresh medium was added and cell concentration was determined using a Neubauer hemocytometer. Myoblasts in 50 µl of culture medium were transferred to the clear-bottom wells of black 96-well plates (Greiner Bio-One, #655090) at a density of 1500 cells/well and infected with 50 µl trypomastigote culture at 7500 parasites/well (1∶5 ratio). The cells were allowed to adhere and spread for 24 h in the incubator before the media was removed and 100 µl of fresh medium containing 0, 0.04, 0.12, 0.37, 1.10, 3.30 or 10 µM of test compound was added to each well, followed by 72 h incubation at 37°C in an atmosphere of 5% CO2. Posaconazole was used as a positive control at the same concentrations as the test compounds. The cells were then fixed by adding 100 µl/well of 8% formaldehyde in PBS, resulting in a 4% working concentration of formaldehyde. To stain the nucleus of the host cell and the nucleus and kinetoplast of parasites, cell membranes were first permeabilized by washing once with 100 µl of 0.1% Triton X-100 in PBS, then treated for 1 h with 0.2 µg/ml of the fluorescent DNA dye, 4,6-diamidino-2-phenylindole (DAPI), followed by one wash with PBS. The fixed plates were kept at 4°C and protected from light until images were acquired.
(§2) Plates were allowed to equilibrate to room temperature and images were acquired by the IN Cell Analyzer 2000 (GE Healthcare) with a 20× objective, 5 fields per well, with 350/50 nm and 460/40 nm fluorescent excitation and emission filters. In the absence of drug cytotoxicity, at least 800 cells were imaged and counted per well. The images were processed and analyzed by IN Cell Analyzer Developer 1.6 software. The size parameters used to segment host and parasite organelles were 125 µm^2 for host nucleus, and 1–2 µm^2 for parasite nucleus/kinetoplast. Since DAPI also strongly stains host heterochromatin regions that display as shapes resembling parasites ( Figure 3 ), particles co-localized to host nuclei were excluded from quantification, while parasite aggregates near the host nucleus were counted as infected cells.

[3] = system: host cell (skeletal myoblasts, bovine embryo skeletal muscle or C2C12); assay: Host cell toxicity in the cross-validation assay; type: cell-based; details: host cells in cross-validation assay, up to 10 µM
Description: as §1
as §2, with “cells. Numbers of host cells and intracellular amastigotes were determined based on host cell and parasite nucleus and parasite kinetoplast quantification, providing a measure of growth inhibition during the first 72 h of post-infection treatment compared to untreated controls.” for “cells.”
^aToxicity was assessed as the highest percentage of host cell growth inhibition caused by compound treatment. Scores are assigned as 1-<20%; 2-21-30%; 3- 31-40%; 4-41-50% and 5->50% growth inhibition.

T. cruzi CYP51 [4] = target: T1, T. cruzi CYP51; assay: Low throughput UV-vis binding assay; details: read-out: KD
Description: Hit validation in the low throughput UV-vis binding assay was performed according to a previously published but somewhat modified protocol. UV-vis absorption spectra were recorded on a Cary scanning spectrophotometer (Varian) in the 1-cm path length quartz cuvette at 23°C in 100 mM potassium phosphate buffer, pH 7.5, containing 10% glycerol, with CYP51 concentration of 0.5 µM. Compound solutions used for titration were prepared in DMSO at 100 µM and added in 2-µl aliquots to each 3 ml sample using a P2 pipetman (Gilson). Binding affinity of hits was estimated using the quadratic tight-binding equation [27]: […]
where Aobs is the absorption shift determined at any ligand concentration; Amax is the maximal absorption shift obtained at saturation; KD is dissociation constant for the inhibitor-enzyme complex; S is the ligand concentration; Et is the total enzyme concentration.

[5] = system: sterol biosynthesis in T. cruzi amastigotes; assay: Lipid analysis of T. cruzi amastigotes (GC-MS of membrane sterols); type: cell-based, Trypanosoma cruzi; details: amastigotes in C2C12 myoblasts, 24 h drug treatment, concentrations 5x below cidal; posaconazole 100 nM
Description: To grow intracellular amastigotes for lipid analysis, C2C12 mouse skeletal myoblasts (4×10^6 cells) cultured in 150 cm^2 flasks as described above were infected with 80×10^6 trypomastigotes for 24 h. The cultures were treated with test compounds 72 h post-infection at concentrations 5× below cidal to avoid completely killing the parasites. Posaconazole at 100 nM was used as a positive control. […] Cells were harvested 96 h post-infection and after 24 h of drug treatment. Cell detachment was initiated by brief treatment with 10 ml of 0.25% trypsin in PBS, followed promptly by replacement with 10 ml of fresh media containing FBS. Harvested cells were washed 3× with 25 ml of PBS to remove FBS and released trypomastigotes. The suspension of infected cells was then transferred to a glass tube and centrifuged at 2000 rpm for 5 min. After washing with PBS, 2 ml of chloroform-methanol solution (2∶1 ratio) was added to re-suspend the cell pellet. Organic solvents were then evaporated under N2 flow, allowing the pellet to dry.
For total lipid extraction, the dry cell pellet was treated with 2 ml chloroform for 24 h. Polar molecules were removed by washing the organic phase 3× with 3 ml water. The organic phase containing the sterols was subsequently dried on an evaporator under N2 flow. The lipids were re-suspended in 2 ml of chloroform-methanol (9∶1 ratio), washed again 3× with 3 ml water, dried under N2 flow and re-suspended in acetonitrile. After an additional wash 3× with 3 ml water, the acetonitrile was dried under an N2 stream. Extracted dry sterols were re-dissolved in hexane and derivatized with N,N-bis(trimethylsilyl)-2,2,2-trifluoroacetamide (BSTFA) (Pierce) by incubating at 37°C for at least 2 hours. Sterols as their trimethylsilyl (TMS) derivatives were analyzed by gas chromatography and mass spectrometry (GC-MS). GC-MS analysis and lipid identification were performed as described previously.

[6] = system: T. cruzi trypomastigote strain CAI/72 in C2C12 myoblasts; assay: Trypanocidal assay; type: cell-based, Trypanosoma cruzi; details: 14 days treatment, then one week compound-free
Description: Compounds cross-validated with low EC50 against T. cruzi infected cells were further evaluated to determine the “cidal” concentration at which host cells are effectively cured, using the protocol adapted from Engel et al 1998 [30]. To allow long term treatment and avoid culture overgrowth, C2C12 myoblasts were seeded at low density in 96 well plates (10^3 cells/well) and cultured with DMEM H-21 medium supplemented with low FBS concentration (1%), 25 mM HEPES, 2 mM L-glutamine, 100 U/ml penicillin and 100 µg/ml streptomycin. The cells were infected with T. cruzi trypomastigote strain CAI/72 (5 parasites/cell) for 24 h and treated with 0, 0.04, 0.12, 0.37, 1.10, 3.30 or 10 µM test compounds in 100 µl of medium for 14 days. During the course of treatment, medium supplemented with test compounds was replaced every 72 h. After 14 days, drug pressure was withdrawn and incubation continued in the compound-free medium for another week, during which cultures were monitored for reappearance of T. cruzi trypomastigotes in the supernatant.

T. cruzi CYP51 [7] = target: T1, T. cruzi CYP51; assay: Primary HTS in two-wavelength mode; type: binding; details: 2 µM CYP51, 528 measurements
[8] = spectral mode, four serial dilutions 2 µM to 12.5 µM, 2 µM CYP51
[9] = T. cruzi-infected myoblasts, 72 h treatment, read-out: EC50 against T. cruzi parasites in HTS assay used to rank order the hits
[10] = Trypanosoma cruzi, Myoblast, 72 h, T. cruzi-infected myoblasts, 72 h treatment, repurchased compound, read-out: EC50 averaged from two independent cross-validation assays for individually repurchased hits
[11] = Trypanosoma cruzi, Myoblast, 72 h, T. cruzi-infected myoblasts, 72 h treatment, read-out: EC50 against T. cruzi parasites in HTS assay used to rank order the hits
[12] = UV-vis titration, 0.5 µM CYP51, quadratic tight-binding equation, lower limit of method ~5 nM
[13] = type II difference spectra scored 0-5, second highest rated hit compound cluster
[14] = Trypanosoma cruzi, Myoblast, 72 h, read-out: EC50 against T. cruzi parasites in HTS assay used to rank order the hits

T1 sequence (Q7Z1V1 15-481, looked up, natural form): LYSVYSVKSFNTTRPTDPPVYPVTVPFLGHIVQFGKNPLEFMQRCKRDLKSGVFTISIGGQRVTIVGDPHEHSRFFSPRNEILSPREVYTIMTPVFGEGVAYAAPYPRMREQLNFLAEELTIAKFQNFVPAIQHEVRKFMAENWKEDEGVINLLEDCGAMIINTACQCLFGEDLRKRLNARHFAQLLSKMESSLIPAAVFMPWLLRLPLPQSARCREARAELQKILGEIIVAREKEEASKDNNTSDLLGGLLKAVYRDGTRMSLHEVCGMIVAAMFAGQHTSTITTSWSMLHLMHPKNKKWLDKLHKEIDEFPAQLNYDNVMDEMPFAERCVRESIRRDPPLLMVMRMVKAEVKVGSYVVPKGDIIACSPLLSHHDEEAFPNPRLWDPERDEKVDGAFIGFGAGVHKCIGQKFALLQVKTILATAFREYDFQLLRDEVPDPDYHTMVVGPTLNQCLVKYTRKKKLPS

Row | Compound | HTS binding score (T. cruzi CYP51 [1]; [8]) | EC50 [2, 9] | EC50 [2, 10] | EC50 [2, 11] | Toxicity score (highest percentage of host cell growth inhibition) [3] | Kd (T. cruzi CYP51 [4]; [12]) | further results
1 | Cc1cccc(Nc2nc(-c3ccncc3)cs2)n1 [Compound 9] | 4 | 914 nM | 580 nM | 910 nM | 1 (1-<20%) | ≤ 5 nM | –
2 | Brc1ccccc1OCCCCn1ccnc1 [Compound 1b] | – | – | 4580 ± 2000 nM | – | – | 66 ± 29 nM | –
3 | COC(=O)C1=C(N)Oc2cc(C)n(CCc3ccc(OC)c(OC)c3)c(=O)c2C1c1cccnc1 (stereo not drawn) [Compound 6, methyl 2-amino-6-[2-(3,4-dimethoxyphenyl)ethyl]-7-methyl-5-oxo-4-pyridin-3-yl-5,6-dihydro-4H-pyrano[3,2-c]pyridine-3-carboxylate] | 3 | 614 nM | – | 610 nM | 1 (1-<20%) | 76 nM | HTS binding score (T. cruzi CYP51 [1]; [13]): 3; EC50 ([2]; Trypanosoma cruzi, Myoblast, in Mus musculus, T. cruzi amastigotes cultured in mouse myoblasts, averaged from two independent assays, read-out: EC50 in low throughput validation (repurchased hit)): 80 nM
4 | CC[C@@H]([C@H](C)O)n1ncn(-c2ccc(N3CCN(c4ccc(OC[C@@H]5CO[C@@](Cn6cncn6)(c6ccc(F)cc6F)C5)cc4)CC3)cc2)c1=O [posaconazole, reference compound] | – | – | – | – | – | – | Effect on membrane sterol composition by GC-MS [5]: lanosterol (f) and eburicol (h) dominated the GC-MS traces; also recorded: fecosterol (e) was completely inhibited; EC50 ([2]; Trypanosoma cruzi, Myoblast, 72 h, T. cruzi-infected myoblasts, 72 h treatment, read-out: EC50 in image-based HTS cross-validation assay): 1 nM; Trypanocidal concentration [6]: 0.6 nM
5 | CC1CCC(C(=O)NC(Cc2c[nH]c3ccccc23)C(=O)Nc2ccncc2)CC1 (stereo not drawn) [reference, α-[(4-methylcyclohexyl)carbonylamino]-N-4-pyridinyl-1H-indole-3-propanamide] | – | – | – | – | – | – | ΔA = A425−A390 (T. cruzi CYP51 [7]): 0.043±0.004
6 | Clc1ccc(OCCCCCCn2ccnc2)cc1 [Compound 11] | – | 948 nM | 760 nM | 950 nM | 2 (2-21-30%) | 65 ± 15 nM | –
7 | Brc1ccc(OCCCCCCn2ccnc2)cc1 [Compound 1a] | – | – | 930 ± 100 nM | – | – | ≤ 5 nM | –
8 | COc1ccc(S(=O)(=O)NC(C)c2ccc(-n3ccnc3)cc2)c2ccccc12 (stereo not drawn) [Compound 3] | – | 484 nM | 200 nM | 480 nM | 2 (2-21-30%) | ≤ 5 nM | –
9 | CC1(C)CC(=O)C2=C(C1)c1c(ccc3ccccc13)NC2c1cccnc1 (stereo not drawn) [Compound 19] | 5 | – | – | 2500 nM | 3 (3- 31-40%) | – | HTS binding score (T. cruzi CYP51 [1]; [13]): 5; Kd (T. cruzi CYP51 [4]; T. cruzi CYP51): ≤ 5 nM
10 | COC(=O)c1ccc(-c2ccncc2)s1 [Compound 21] | 4 | – | – | – | 2 (2-21-30%) | – | EC50 [2, 14]: 2740 nM
11 | O=P(Nc1cccnc1)(Oc1ccccc1Cl)Oc1ccccc1Cl [Compound 41] | 5 | – | – | – | 1 (1-<20%) | – | EC50 [2, 14]: 7730 nM
12 | COC(=O)C1=C(C)N(Cc2cccnc2)C(=O)/C1=C\c1ccccc1OCc1ccccc1 [Compound 53] | 3 | – | – | – | 1 (1-<20%) | – | EC50 [2, 14]: 9060 nM

Source: paper PMC3409115, “Diverse Inhibitor Chemotypes Targeting Trypanosoma cruzi CYP51” (PLoS Neglected Tropical Diseases, 2012)
